Source: patent publication US9492508B2, “Parathyroid hormone analogs and uses thereof” (The General Hospital Corporation, priority 2010, dated 2016)
Square brackets hold non-standard residues; d marks the D form. Peptide text beside a SMILES is read from it. hArg = N=C(N)NCCCC[C@H](N)C(=O)O; Aib = CC(C)(N)C(=O)O

Tests used:
[1] = molecular target: T1, rat PTHR1 (RG) (Rattus norvegicus, UniProt P25961); assay: Competition binding, RG conformation of rat PTHR1; details: FIG. 1B
T1 construct: expressed in transfected cells
T1 sequence (P25961 27-591): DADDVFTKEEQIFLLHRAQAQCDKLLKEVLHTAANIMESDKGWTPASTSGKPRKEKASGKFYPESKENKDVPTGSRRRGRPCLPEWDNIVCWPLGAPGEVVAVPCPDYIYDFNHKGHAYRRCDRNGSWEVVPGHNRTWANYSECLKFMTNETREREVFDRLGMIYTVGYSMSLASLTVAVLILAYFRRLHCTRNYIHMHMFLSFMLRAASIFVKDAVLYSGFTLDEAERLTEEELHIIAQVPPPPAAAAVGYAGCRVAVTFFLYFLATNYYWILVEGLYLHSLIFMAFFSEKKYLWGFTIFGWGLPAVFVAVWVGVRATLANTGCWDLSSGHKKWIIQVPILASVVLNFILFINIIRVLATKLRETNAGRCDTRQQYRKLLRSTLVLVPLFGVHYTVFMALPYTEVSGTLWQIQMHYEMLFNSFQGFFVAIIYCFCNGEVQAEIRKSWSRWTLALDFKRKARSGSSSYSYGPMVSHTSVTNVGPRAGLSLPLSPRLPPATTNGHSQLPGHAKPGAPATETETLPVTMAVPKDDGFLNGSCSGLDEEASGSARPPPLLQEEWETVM
Excerpt: (§1) Briefly, the R^0 form of the receptor can be favored by addition of the non-hydrolyzable nucleotide analog GTPγS. The RG form can be favored, for example, by co-transfection of cells with a negative dominant Gαs subunit. […] Data are means of four experiments, each performed in duplicate. Curves were fit to the data using Graph-Pad Prism 4.0.

[2] = Blood Ca++ responses in mice; assay type: in vivo, mice (C57 BL/6); details: 5 nmol/kg s.c., 4, 6, 8 and 24 hours
Procedure: Blood Ca^++ responses in mice were also assayed. Mice (C57 BL/6) were injected subcutaneously with either vehicle or the indicated ligand to give a final dose of 5 nmol/kg body weight, and blood was withdrawn via the tail at times after injection and assessed for Ca^++ concentration using a Bayer Rapid Lab model 348 blood analyzer. […] A similar experiment using 10 nmol/kg by intravenous injection was also conducted with similar results (FIGS. 8C and 8D).

[3] = molecular target: T2, rat PTHR1 (R0) (Rattus norvegicus, UniProt P25961); assay: Competition binding, R0 conformation of rat PTHR1; details: R0 conformation; read-out: Binding rat PTHR1 IC50 nM R0
T2 sequence (P25961 27-591): T1 sequence (P25961 27-591)
Excerpt: as §1

[4] = test system: MC3T3-E1 cells; assay: cAMP RIA in intact MC3T3-E1 cells; assay type: cell-based, mouse; details: 30 min, room temperature, IBMX
Procedure: cAMP stimulating activity of these polypeptides was also assessed, using two different methods: a radioimmunoassay (RIA; FIG. 2) and a cAMP responsive element fused to a luciferase gene (FIG. 3). Briefly, the RIA cAMP assays were performed in intact MC3T3-E1 cells, a mouse pre-osteoblastic cell line, in 96-well plates, as described by Okazaki et al. (Proc Natl Acad Sci USA 105:16525-30, 2008). […] The cAMP contents of the HCl lysates were then determined by RIA. Data are means of six experiments, each performed in duplicate. Curves were fit to the data using Graph-Pad Prism 4.0.

[5] = test system: MC3T3-E1 cells; assay: cAMP response following ligand wash-out in MC3T3-E1 cells; assay type: cell-based, mouse; details: 100 nM ligand 5 min, then wash-out; FIGS. 7A, 7B
Procedure: Cells were treated at room temperature with vehicle or the indicated ligand (100 nM) for five minutes; for each ligand duplicate wells were used to obtain the initial (maximum cAMP values); in these wells, cells were co-incubated with ligand and IBMX. After five minutes of initial treatment, the buffer was removed, and, for the initial wells, the reactions were terminated by addition of 50 mM HCl. In the other wells, the cells were rinsed three times with buffer, and incubated in buffer for varying times, as indicated on the abscissa; after which the buffer was replaced by a buffer containing IBMX, and the cells were incubated for another five minutes. After that, the buffer was removed and the reactions were terminated by addition of 50 mM HCl. The cAMP contents of the HCl lysates were then determined by RIA.

[6] = molecular target: T3, human PTHR1 (R0) (Homo sapiens, UniProt Q03431); assay: Competition binding, R0 conformation of human PTHR1 (COS-7 membranes, 125I-PTH(1-34) tracer, GTPγS); details: FIG. 5A
T3 construct: expressed in transfected cells; host or cells: COS-7 cells (membranes)
T3 sequence (Q03431 27-593): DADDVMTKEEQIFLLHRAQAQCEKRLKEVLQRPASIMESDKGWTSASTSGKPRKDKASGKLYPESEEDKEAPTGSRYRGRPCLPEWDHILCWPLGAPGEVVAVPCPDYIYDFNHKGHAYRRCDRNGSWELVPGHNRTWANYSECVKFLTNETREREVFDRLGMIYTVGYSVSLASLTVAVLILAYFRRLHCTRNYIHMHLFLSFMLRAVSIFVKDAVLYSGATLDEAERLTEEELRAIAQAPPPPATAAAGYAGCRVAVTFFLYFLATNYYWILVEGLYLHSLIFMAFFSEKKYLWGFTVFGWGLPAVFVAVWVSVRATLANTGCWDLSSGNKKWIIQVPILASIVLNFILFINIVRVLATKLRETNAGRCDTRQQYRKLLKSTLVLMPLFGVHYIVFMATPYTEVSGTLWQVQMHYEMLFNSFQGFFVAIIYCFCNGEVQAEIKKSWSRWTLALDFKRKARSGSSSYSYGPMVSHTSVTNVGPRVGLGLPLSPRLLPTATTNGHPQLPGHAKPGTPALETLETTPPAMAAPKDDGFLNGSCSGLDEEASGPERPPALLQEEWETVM
Procedure: as §1
(§2) Here, competition binding assays for the R^0 and RG PTHR1 conformation were performed in membranes prepared from transfected COS-7 cells, as described by Dean et al., Mol Endocrinol 22:156-66, 2008. Data are means of three experiments, each performed in duplicate. Curves were fit to the data using Graph-Pad Prism 4.0.

[7] = Solubility, in vitro precipitation assay (PBS pH 7.4 vs 10 mM acetic acid); assay type: physicochemical; details: pH 7.4
Procedure: The relative solubilities of SP-PTH-AAK (SEQ ID NO:4) and SP-PTH (SEQ ID NO:11) in different buffers were assessed in an in vitro precipitation assay. For each polypeptide, two vials, each containing 50 μg of lyophilized polypeptide powder, were prepared; one vial was reconstituted in 50 μl of PBS at pH 7.4; the other vial was reconstituted in 50 μl of 10 mM acetic acid (pH 2.9) to give final concentrations of 1.0 mg/ml […]. After one hour at room temperature, the vials were centrifuged at 15,000×g for 2 minutes. The supernatant was removed and the protein content assayed using the Pierce BCA assay (Thermo Fischer Scientific, Rockford, Ill.). For each polypeptide, the content of the PBS sample was expressed as percent of the content of the corresponding acetic acid sample.

[8] = molecular target: T4, human PTHR1 (RG) (Homo sapiens, UniProt Q03431); assay: Competition binding, RG conformation of human PTHR1 (COS-7 membranes); details: mean of 3 experiments, read-out: Binding human PTHR1 IC50 (Log M) RG (converted)
T4 construct: expressed in transfected cells; host or cells: COS-7 cells (membranes)
T4 sequence (Q03431 27-593): T3 sequence (Q03431 27-593)
Procedure: as §1, §2

CC[C@H](C)[C@H](NC(=O)[C@H](CCC(=O)O)NC(=O)[C@H](C)NC(=O)[C@@H](NC(=O)[C@H](Cc1c[nH]cn1)NC(=O)[C@@H](NC(=O)[C@H](CCC(=O)O)NC(=O)[C@H](C)NC(=O)[C@@H](NC(=O)[C@H](CC(C)C)NC(=O)[C@H](CCCCN)NC(=O)[C@H](Cc1c[nH]cn1)NC(=O)[C@H](CC(C)C)NC(=O)[C@H](Cc1ccccc1)NC(=O)[C@H](C)NC(=O)[C@H](CCCNC(=N)N)NC(=O)[C@H](CCCNC(=N)N)NC(=O)[C@H](CCCNC(=N)N)NC(=O)[C@H](C)NC(=O)[C@H](CC(=O)O)NC(=O)[C@H](CCC(N)=O)NC(=O)[C@@H](NC(=O)[C@H](Cc1c[nH]c2ccccc12)NC(=O)[C@H](CCCCN)NC(=O)[C@H](C)NC(=O)[C@H](CCCCNC(=N)N)NC(=O)[C@H](CCC(N)=O)NC(=O)[C@H](Cc1c[nH]cn1)NC(=O)[C@H](CCSC)NC(=O)[C@H](CC(C)C)NC(=O)[C@H](CCC(N)=O)NC(=O)[C@@H](NC(=O)[C@H](CCC(=O)O)NC(=O)C(C)(C)NC(=O)[C@@H](NC(=O)[C@H](C)N)C(C)C)[C@@H](C)CC)[C@@H](C)CC)[C@@H](C)CC)[C@@H](C)CC)[C@@H](C)O)C(N)=O [AIB-SP-PTH-AAK, [Ala^1,12,18,22,Aib^3,Gln^10,Har^11,Trp^14,Lys^26]PTH(1-14)/PTHrP(15-36)] (H-AV[Aib]EIQLMHQ[hArg]AKWIQDARRRAFLHKLIAEIHTAEI-NH2; N-terminus assumed)
binding to RG form of rat PTHR1, comparison in words [1]: increased
blood calcium levels at later time points vs PTH(1-34) or vehicle [2]: increased
IC50 [3]: 0.7 nM
EC50 [4]: 0.018 nM
cAMP MC3T3-E1 cells Emax (pmole/well) [4]: 57.9 ± 13.9 pmole/well
cAMP MC3T3-E1 cells EC50 (Log M) ([4]; 6 experiments): −10.7 ± 0.1 Log M
cAMP-stimulating activity after ligand wash-out [5]: maintained cAMP-stimulating activity for longer periods of time than PTH(1-34)
R0 binding at human PTH receptor as compared to PTH(1-34) [6]: enhanced R^0 binding
solubility in PBS pH 7.4 (percent of acetic acid sample), in words [7]: solubility similar to hPTH(1-34)NH2
IC50 [8]: 0.372 nM
